Experimental data from US20080014186A1, “Hla-A24 or Hla-A2 Binding Peptides of Parathyroid Hormone-Related Protein” (GREEN PEPTIDE CO., LTD., priority 2004, published 2008).

How the values were obtained:
[1] = system: PBMCs of HLA-A24^+ healthy donors and prostate cancer patients; assay: Assay for peptide-specific CTLs in PBMCs (IFN-γ ELISA, peptide-pulsed C1R-A24 cells); type: cell-based, human; details: for IFN-γ production: C1R-A24 cells, HIV peptide background subtracted
Description: To investigate the immunogenicity of these four PTHrP peptides, the PBMCs of 10 HLA-A24^+ healthy donors and 10 HLA-A24^+ prostate cancer patients were stimulated with each of the four PTHrP peptides and were examined for their IFN-γ production in response to C1R-A24 cells, which were pre-pulsed with either a corresponding PTHrP peptide or the HIV peptide. Flu- and EBV-derived peptides were used as controls.
The assay for detection of peptide-specific CTLs in PBMCs was performed according to a previously reported method. In brief, PBMCs (1 X 10^5 cells/well) were incubated with […] of each peptide in a U-bottom-type 96-well microculture plate (Nunc, Roskilde, Denmark) at a volume of 200 μl of culture medium. The culture medium consisted of 45% RPMI-1640, 45% AIM-V medium (Gibco BRL), 10% FCS, 100 U/ml of IL-2, and 0.1 mM MEM nonessential amino acid solution (Gibco, BRL). Half of the culture medium was removed and replaced with new medium containing a corresponding peptide (20 μg/ml) every 3 days. On the 15th day of culture, the cultured cells were separated into 4 wells, and two wells were used for PTHrP peptide-pulsed C1R-A24 cells, and the other two wells were used for the HIV peptide-pulsed C1R-A24 cells. After an 18-hr incubation period, the supernatants were collected, and the level of IFN-γ was determined by ELISA (limit of sensitivity: 10 pg/ml).
The assay was carried out in quadruplicate, and the mean of two wells which show the highest significance compared to the control is shown in Table 1.
It was then determined whether PBMCs stimulated by either the PTHrP 36-44 or the PTHrP 102-111 peptide could induce prostate cancer-reactive CTLs from HLA-A24^+ healthy donors and prostate cancer patients. PBMCs from HLA-A24^+ healthy donors and prostate cancer patients were repeatedly stimulated with these PTHrP peptides. On day 15, half of the cultured cells were harvested, pooled from 4 wells, and cultured with C1R-A24 cells, which were pre-pulsed with the HIV peptide (open symbol) and the indicated PTHrP peptide (closed symbol) for 18-hr. The levels of IFN-γ in the supernatants were then determined by ELISA.

[2] = system: IgG in plasma of HLA-A24^+ healthy donors and prostate cancer patients; assay: Peptide-specific IgG in plasma by ELISA (HLA-A24-binding PTHrP peptides); parameters: species or system human; details: for IgG reactive to the peptide in plasma: 1:100-diluted plasma
Excerpt: The inventors previously reported that IgGs reactive to CTL epitope peptides were detected in healthy donors and patients with various types of cancers. IgGs reactive to prostate-related antigens were also detected in healthy donors and prostate cancer patients. It was examined, therefore, whether IgG reactive to the four PTHrP-derived peptides, PTHrP 36-44, PTHrP 102-111, PTHrP 25-34, and PTHrP 110-119, could be detected in the plasma of cancer patients and healthy donors.
Peptide-specific IgG levels in the plasma were measured by ELISA, as previously reported. In brief, peptide (20 μg/well)-immobilized plates were blocked with Block Ace (Yukijirushi, Tokyo, Japan) and washed with 0.05% Tween20-PBS, after which 100 μl/well of plasma sample diluted with 0.05% Tween20-Block Ace was added to the plate. After 2 hours incubation at 37° C., the plates were washed and further incubated for 2 hours with a 1:1000-diluted rabbit anti-human IgG (γ-chain-specific) (DAKO, Glostrup, Denmark). The plates were washed, and then 100 μl of 1:100-diluted goat anti-rabbit IgG-conjugated horseradish peroxidase (EnVision, DAKO) was added to each well, and the plates were then incubated at room temperature for 40 min. After the plates were washed once, 100 μl/well of tetramethyl benzidine substrate solution (KPL, Guildford, UK) was added, and the reaction was stopped by the addition of 1 M phosphoric acid. The values are shown as optical density (OD) units/ml, and responses to the HIV peptide were subtracted. IgG reactive to a corresponding PTHrP peptide was judged to be positive when the difference of the OD in 1:100-diluted plasma exceeded 0.05. The results that IgG reactive to either the PTHrP102-111 or the […] peptide was detected in 8 of 10 healthy donors and in 7 of 10 prostate cancers are shown in Table 2 hereinafter.
To confirm the specificity of IgG to the indicated PTHrP peptide, 100 μl of sample plasma from either HD #1 and Pt #6 was cultured in a plate pre-coated with either a corresponding PTHrP peptide or an irrelevant PTHrP peptide. Thereafter, the levels of IgG reactive to the PTHrP 102-111 peptide or the PTHrP 110-119 peptide in the resulting supernatants were determined by ELISA.

[3] = HLA-A24^+ prostate cancer patient #1
[4] = HLA-A24^+ prostate cancer patient #2
[5] = HLA-A24^+ prostate cancer patient #3
[6] = HLA-A24^+ prostate cancer patient #4
[7] = HLA-A24^+ prostate cancer patient #5
[8] = HLA-A24^+ prostate cancer patient #6
[9] = HLA-A24^+ prostate cancer patient #7
[10] = HLA-A24^+ prostate cancer patient #8
[11] = HLA-A24^+ prostate cancer patient #9
[12] = HLA-A24^+ prostate cancer patient #10
[13] = HLA-A24^+ prostate cancer patients

Sequence: KVETYKEQPL [PTHrP 110-119]
- IFN-γ production ([1]; HLA-A24^+ healthy donor #1): 394 pg/mL
- IFN-γ production ([1]; HLA-A24^+ healthy donor #2): 17 pg/mL
- IFN-γ production ([1]; HLA-A24^+ healthy donor #3): 20 pg/mL
- IFN-γ production ([1]; HLA-A24^+ healthy donor #4): 2 pg/mL
- IFN-γ production ([1]; HLA-A24^+ healthy donor #5): 38 pg/mL
- IFN-γ production ([1]; HLA-A24^+ healthy donor #6): 357 pg/mL
- IFN-γ production ([1]; HLA-A24^+ healthy donor #7): 0 pg/mL
- IFN-γ production ([1]; HLA-A24^+ healthy donor #8): 1017 pg/mL
- IFN-γ production ([1]; HLA-A24^+ healthy donor #9): 61 pg/mL
- IFN-γ production ([1]; HLA-A24^+ healthy donor #10): 0 pg/mL
- induced peptide-specific CTLs, number of donors ([1]; HLA-A24^+ healthy donors): 3 of 10
- Total (donors with significant peptide-specific IFN-γ production / donors tested) ([1]; HLA-A24^+ healthy donors, p < 0.05): 3/10
- IFN-γ production [1, 3]: 0 pg/mL
- IFN-γ production [1, 4]: 9 pg/mL
- IFN-γ production [1, 5]: 38 pg/mL
- IFN-γ production [1, 6]: 19 pg/mL
- IFN-γ production [1, 7]: 10 pg/mL
- IFN-γ production [1, 8]: 14 pg/mL
- IFN-γ production [1, 9]: 0 pg/mL
- IFN-γ production [1, 10]: 23 pg/mL
- IFN-γ production [1, 11]: 0 pg/mL
- IFN-γ production [1, 12]: 118 pg/mL
- induced peptide-specific CTLs (peptide-specific IFN-γ production), number of patients [1, 13]: 1 of 10
- Total (patients with significant peptide-specific IFN-γ production / patients tested) ([1]; HLA-A24^+ prostate cancer patients, p < 0.05): 1/10
- IgG reactive to the peptide in plasma ([2]; HLA-A24^+ healthy donor #1): + (IgG reactive to a corresponding peptide was judged to be positive when the difference of the OD in 1:100-diluted plasma exceeded 0.05.)
- IgG reactive to the peptide in plasma ([2]; HLA-A24^+ healthy donor #2): + (IgG reactive to a corresponding peptide was judged to be positive when the difference of the OD in 1:100-diluted plasma exceeded 0.05.)
- IgG reactive to the peptide in plasma ([2]; HLA-A24^+ healthy donor #3): + (IgG reactive to a corresponding peptide was judged to be positive when the difference of the OD in 1:100-diluted plasma exceeded 0.05.)
- IgG reactive to the peptide in plasma ([2]; HLA-A24^+ healthy donor #4): − (IgG reactive to a corresponding peptide was judged to be positive when the difference of the OD in 1:100-diluted plasma exceeded 0.05.)
- IgG reactive to the peptide in plasma ([2]; HLA-A24^+ healthy donor #5): + (IgG reactive to a corresponding peptide was judged to be positive when the difference of the OD in 1:100-diluted plasma exceeded 0.05.)
- IgG reactive to the peptide in plasma ([2]; HLA-A24^+ healthy donor #6): − (IgG reactive to a corresponding peptide was judged to be positive when the difference of the OD in 1:100-diluted plasma exceeded 0.05.)
- IgG reactive to the peptide in plasma ([2]; HLA-A24^+ healthy donor #7): + (IgG reactive to a corresponding peptide was judged to be positive when the difference of the OD in 1:100-diluted plasma exceeded 0.05.)
- IgG reactive to the peptide in plasma ([2]; HLA-A24^+ healthy donor #8): + (IgG reactive to a corresponding peptide was judged to be positive when the difference of the OD in 1:100-diluted plasma exceeded 0.05.)
- IgG reactive to the peptide in plasma ([2]; HLA-A24^+ healthy donor #9): + (IgG reactive to a corresponding peptide was judged to be positive when the difference of the OD in 1:100-diluted plasma exceeded 0.05.)
- IgG reactive to the peptide in plasma ([2]; HLA-A24^+ healthy donor #10): + (IgG reactive to a corresponding peptide was judged to be positive when the difference of the OD in 1:100-diluted plasma exceeded 0.05.)
- IgG reactive to the peptide detected, number of donors ([2]; HLA-A24^+ healthy donors): 8 of 10
- Total (IgG-positive donors / donors tested) ([2]; HLA-A24^+ healthy donors): 8/10
- IgG reactive to the peptide in plasma [2, 3]: + (IgG reactive to a corresponding peptide was judged to be positive when the difference of the OD in 1:100-diluted plasma exceeded 0.05.)
- IgG reactive to the peptide in plasma [2, 4]: + (IgG reactive to a corresponding peptide was judged to be positive when the difference of the OD in 1:100-diluted plasma exceeded 0.05.)
- IgG reactive to the peptide in plasma [2, 5]: − (IgG reactive to a corresponding peptide was judged to be positive when the difference of the OD in 1:100-diluted plasma exceeded 0.05.)
- IgG reactive to the peptide in plasma [2, 6]: − (IgG reactive to a corresponding peptide was judged to be positive when the difference of the OD in 1:100-diluted plasma exceeded 0.05.)
- IgG reactive to the peptide in plasma [2, 7]: − (IgG reactive to a corresponding peptide was judged to be positive when the difference of the OD in 1:100-diluted plasma exceeded 0.05.)
- IgG reactive to the peptide in plasma [2, 8]: + (IgG reactive to a corresponding peptide was judged to be positive when the difference of the OD in 1:100-diluted plasma exceeded 0.05.)
- IgG reactive to the peptide in plasma [2, 9]: + (IgG reactive to a corresponding peptide was judged to be positive when the difference of the OD in 1:100-diluted plasma exceeded 0.05.)
- IgG reactive to the peptide in plasma [2, 10]: + (IgG reactive to a corresponding peptide was judged to be positive when the difference of the OD in 1:100-diluted plasma exceeded 0.05.)
- IgG reactive to the peptide in plasma [2, 11]: + (IgG reactive to a corresponding peptide was judged to be positive when the difference of the OD in 1:100-diluted plasma exceeded 0.05.)
- IgG reactive to the peptide in plasma [2, 12]: + (IgG reactive to a corresponding peptide was judged to be positive when the difference of the OD in 1:100-diluted plasma exceeded 0.05.)
- IgG reactive to the peptide detected, number of patients [2, 13]: 7 of 10
- Total (IgG-positive patients / patients tested) [2, 13]: 7/10
- Peptide-specific absorption of IgG (level after culturing plasma in corresponding peptide-coated wells) ([2]; plasma from HD #1 and Pt #6, FIG. 3B): significantly diminished
